Results reported in US20140128385A1 (NOVARTIS AG, priority 2011, published 2014).
Structures can show the parent of a compound that is named as a salt.

Target: T1, BACE-2 (Homo sapiens, UniProt Q9Y5Z0)
T1 construct: Recombinant BACE-2 (extracellular domain, expressed in baculovirus and purified using standard methods); made in house
T1 sequence (Q9Y5Z0 63-473 limits assumed): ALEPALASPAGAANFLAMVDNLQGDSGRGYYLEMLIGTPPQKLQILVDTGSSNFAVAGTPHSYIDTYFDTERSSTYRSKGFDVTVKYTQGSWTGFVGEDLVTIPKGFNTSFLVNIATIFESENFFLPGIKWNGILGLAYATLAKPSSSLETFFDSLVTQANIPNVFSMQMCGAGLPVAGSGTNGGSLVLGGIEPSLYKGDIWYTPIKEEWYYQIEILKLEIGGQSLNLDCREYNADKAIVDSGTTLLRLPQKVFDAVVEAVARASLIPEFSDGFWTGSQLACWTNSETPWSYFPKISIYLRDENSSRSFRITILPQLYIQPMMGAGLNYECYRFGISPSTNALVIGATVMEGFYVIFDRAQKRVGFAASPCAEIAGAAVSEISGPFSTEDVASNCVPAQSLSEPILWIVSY
Experiment: assay for inhibition of BACE-2
Type: biochemical

| Structure (SMILES) | IC50 |
| --- | --- |
| [2H]c1nc(C(=O)Nc2cccc(C3(CF)COCC(N)=N3)n2)c(C([2H])([2H])[2H])c([2H])c1Cl (stereo not drawn) [Example 262, 5-{6-[(4,6-Dideutero-5-chloro-3-trideuteromethyl-pyridine-2-carbonyl)-amino]-pyridin-2-yl}-5-fluoromethyl-5,6-dihydro-2H-[1,4]oxazin-3-yl-ammonium trifluoro acetate] | 0.242 µM |
| NC(=S)c1ccc(C(=O)Nc2cccc(C3(CF)COCC(N)=N3)n2)nc1 (stereo not drawn) [Example 263] | 8.66 µM |
| [2H]c1nc(C(=O)Nc2cc(C3(CF)COCC(N)=N3)ccn2)c(C([2H])([2H])[2H])c([2H])c1Cl (stereo not drawn) [Example 269, 5-{2-[(5-Chloro-4,6-dideutero-3-trideuteromethyl-pyridine-2-carbonyl)-amino]-pyridin-4-yl}-5-fluoromethyl-5,6-dihydro-2H-[1,4]oxazin-3-yl-ammonium acetate] | 1.53 µM |
| NC1=NC(CF)(c2ccnc(NC(=O)c3ccc(Cl)cn3)c2)COC1 (stereo not drawn) [Example 270] | 4.82 µM |
| Cc1cc(C(N)=S)cnc1C(=O)Nc1cc(C2(CF)COCC(N)=N2)ccn1 (stereo not drawn) [Example 271, 5-Fluoromethyl-5-{2-[(3-methyl-5-thiocarbamoyl-pyridine-2-carbonyl)-amino]-pyridin-4-yl}-5,6-dihydro-2H-[1,4]oxazin-3-yl-ammonium trifluoro-acetate] | > 10 µM |
| NC1=NC(CF)(c2cc(NC(=O)c3ccc(Br)cn3)cnc2Cl)COC1 (stereo not drawn) [Example 274, 5-Bromo-pyridine-2-carboxylic acid [5-(5-amino-3-fluoromethyl-3,6-dihydro-2H-[1,4]oxazin-3-yl)-6-chloro-pyridin-3-yl]-amide hydrochloride] | 0.132 µM |
